# Test results: patent publication US12194024B2, “Pharmaceutical composition of MDM2 inhibitor and use thereof for preventing and/or treating disease” (ASCENTAGE PHARMA (SUZHOU) CO., LTD., priority 2019, dated 2025)
# System: human OCI-AML-3 AML xenograft tumor
# Test: Subcutaneous OCI-AML-3 AML mouse xenograft tumor model
# Assay type: in vivo, NOD SCID mice
# Settings: Compound 2 50 mg/kg orally q2d, Azacitidine 2 mg/kg i.v., Decitabine 1 mg/kg i.v.
# Procedure: For subcutaneous model, OCI-AML-3 cells (1×10^6) are injected subcutaneously into the right side of the abdomen of 6- to 8-week-old mice. About 10 days after the cell inoculation, the mice are randomly divided into groups based on the primary tumor size achieving about 100-150 mm^3 of average tumor volume.
# The tumor diameter is measured twice using a vernier caliper each week. The computational formula of the tumor volume (TV) is: TV=a×b^2/2. In the computational formula, a and b represent the length and width of the tumor measurement respectively. The computational formula of the relative tumor volume (RTV) is: RTV=VtN1. In the computational formula, V1 is the tumor volume when being grouped and administered, and Vt is the tumor volume when being measured at a certain day after the administration.
# The tumor remission rate (%) is derived by dividing the number of SD (Stable Disease), PR (Partial response) and CR (Complete response) appearing in the tumor bearing mice after treatment by the total number of mice in the group×100%.
# The synergistic analysis uses the following formula (reference can be made to Gould S E et al., Translational value of mouse models in oncology drug development, Nature medicine, 2015 21, 431-439): synergistic factor=((A/C)×(B/C))/(AB/C); A=RTV value of the A drug alone group; B=RTV value of the B drug alone group; C=RTV value of the vehicle control group, AB=RTV value of the AB combined group (Clarke R., Issues in experimental design and endpoint analysis in the study of experimental cytotoxic agents in vivo in breast cancer and other models[J], Breast Cancer Research & Treatment, 1997, 46 (2-3):255-278).
# For subcutaneous model, OCI-AML-3 cells (1×10^6) are injected subcutaneously into the right side of the abdomen of 6- to 8-week-old mice. About 10 days after the cell inoculation, the mice are randomly divided into groups based on the primary tumor size achieving about 100-150 mm^3 of average tumor volume. Compound 2 is administered alone or in combination (50 mg/kg, is taken orally, every other day for 15 days) and Aza (2 mg/kg, intravenous injection each day for 7 days) or Dec (1 mg/kg, intravenous injection each day for 7 days). The tumor volume is measured twice using a vernier caliper each week and is represented by following formula in mm^3: V=0.5a×b^2; in the formula, a and b are the long diameter and short diameter of the tumor respectively. […] RTV=VtN1; wherein V1 and Vt are the average tumor volume on the first day (day 1) in the treatment, and the average tumor volume of a certain time point (day t) respectively.
# Azacitidine is administered following 2 mg/kg, caudal vein injection, qd×7d, drug withdrawal 7 days, then qd×2 day regimens for seven days (corresponding to the number 68 regimen in table 7).
smiles,measurement,setting,value
CCN1[C@@H](C(=O)NC23CCC(C(=O)O)(CC2)CC3)[C@H](c2cccc(Cl)c2F)[C@]2(C(=O)Nc3cc(Cl)ccc32)C12CCCCC2 [Compound 2],T/C value (%) (d15),,84.8%
same,"Relative tumor volume (RTV, Mean ± SEM)","d15, vehicle 16.5 ± 4.1",14.0 ± 2.7
